Measurements as given in the supplement of paper PMC10307832.

How the values were obtained:
Test in all cases: relative viability (nuclei count vs DMSO), 5 days (fraction); higher = more cells survive
CAL-12T = tested on: CAL-12T
Summary of the method: (§1)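 Lung cancer cell lines, seeded in 1536-well plates, were treated the following day by pin tool with a single drug or with five library-drug doses (not always all listed) in √10 steps on top of a fixed anchor-drug dose. Cells were fixed and nuclei stained in one step after 5 days, and nuclei were counted. Relative viability is the nuclei count for treated wells divided by that for vehicle wells, reported as medians of duplicate plates.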

ChaGo-K-1 = tested on: ChaGo-K-1
Summary of the method: as §1

EMC-BAC-2 = tested on: EMC-BAC-2
Summary of the method: as §1

HCC-366 = tested on: HCC-366
Summary of the method: as §1

HCC-78 = tested on: HCC-78
Summary of the method: as §1

HOP-62 = tested on: HOP-62
Summary of the method: as §1

LC-2-ad = tested on: LC-2-ad
Summary of the method: as §1

LK-2 = tested on: LK-2
Summary of the method: as §1

NCI-H1355 = tested on: NCI-H1355
Summary of the method: as §1

NCI-H1734 = tested on: NCI-H1734
Summary of the method: as §1

NCI-H1993 = tested on: NCI-H1993
Summary of the method: as §1

NCI-H2009 = tested on: NCI-H2009
Summary of the method: as §1

NCI-H2085 = tested on: NCI-H2085
Summary of the method: as §1

NCI-H2228 = tested on: NCI-H2228
Summary of the method: as §1

NCI-H2347 = tested on: NCI-H2347
Summary of the method: as §1

NCI-H2405 = tested on: NCI-H2405
Summary of the method: as §1

NCI-H3122 = tested on: NCI-H3122
Summary of the method: as §1

NCI-H596 = tested on: NCI-H596
Summary of the method: as §1

NCI-H838 = tested on: NCI-H838
Summary of the method: as §1

PC-14 = tested on: PC-14
Summary of the method: as §1

RERF-LC-KJ = tested on: RERF-LC-KJ
Summary of the method: as §1

SK-MES-1 = tested on: SK-MES-1
Summary of the method: as §1

SW 1573 = tested on: SW 1573
Summary of the method: as §1

Compound: O=C(O)CCCCC(CCSCc1ccccc1)SCc1ccccc1 (stereo not given) [CPI-613] + N=C(N)NC(=N)NCCc1ccccc1 [Phenformin] (partner 250 µM)
- relative viability (CAL-12T; first compound 5 µM): 0.538
- relative viability (CAL-12T; first compound 15.81 µM): 0.546
- relative viability (CAL-12T; first compound 50 µM): 0.464
- relative viability (CAL-12T; first compound 158.11 µM): 0.0459
- relative viability (CAL-12T; first compound 500 µM): 0.0085
- relative viability (ChaGo-K-1; first compound 5 µM): 0.47
- relative viability (ChaGo-K-1; first compound 15.81 µM): 0.454
- relative viability (ChaGo-K-1; first compound 50 µM): 0.491
- relative viability (ChaGo-K-1; first compound 158.11 µM): 0.331
- relative viability (ChaGo-K-1; first compound 500 µM): 0.124
- relative viability (EMC-BAC-2; first compound 5 µM): 0.531
- relative viability (EMC-BAC-2; first compound 15.81 µM): 0.517
- relative viability (EMC-BAC-2; first compound 50 µM): 0.502
- relative viability (EMC-BAC-2; first compound 158.11 µM): 0.226
- relative viability (EMC-BAC-2; first compound 500 µM): 0.0232
- relative viability (HCC-366; first compound 5 µM): 0.554
- relative viability (HCC-366; first compound 15.81 µM): 0.567
- relative viability (HCC-366; first compound 50 µM): 0.651
- relative viability (HCC-366; first compound 158.11 µM): 0.239
- relative viability (HCC-366; first compound 500 µM): 0.0045
- relative viability (HCC-78; first compound 5 µM): 0.712
- relative viability (HCC-78; first compound 15.81 µM): 0.647
- relative viability (HCC-78; first compound 50 µM): 0.787
- relative viability (HCC-78; first compound 158.11 µM): 0.591
- relative viability (HCC-78; first compound 500 µM): 0.651
- relative viability (HOP-62; first compound 5 µM): 0.67
- relative viability (HOP-62; first compound 15.81 µM): 0.632
- relative viability (HOP-62; first compound 50 µM): 0.62
- relative viability (HOP-62; first compound 158.11 µM): 0.437
- relative viability (HOP-62; first compound 500 µM): 0.204
- relative viability (LC-2-ad; first compound 5 µM): 0.569
- relative viability (LC-2-ad; first compound 15.81 µM): 0.558
- relative viability (LC-2-ad; first compound 50 µM): 0.567
- relative viability (LC-2-ad; first compound 158.11 µM): 0.396
- relative viability (LC-2-ad; first compound 500 µM): 0.0712
- relative viability (LK-2; first compound 5 µM): 0.379
- relative viability (LK-2; first compound 15.81 µM): 0.32
- relative viability (LK-2; first compound 50 µM): 0.517
- relative viability (LK-2; first compound 158.11 µM): 0.346
- relative viability (LK-2; first compound 500 µM): 0.0954
- relative viability (NCI-H1355; first compound 5 µM): 0.423
- relative viability (NCI-H1355; first compound 15.81 µM): 0.412
- relative viability (NCI-H1355; first compound 50 µM): 0.411
- relative viability (NCI-H1355; first compound 158.11 µM): 0.347
- relative viability (NCI-H1355; first compound 500 µM): 0.105
- relative viability (NCI-H1734; first compound 5 µM): 0.389
- relative viability (NCI-H1734; first compound 15.81 µM): 0.322
- relative viability (NCI-H1734; first compound 50 µM): 0.348
- relative viability (NCI-H1734; first compound 158.11 µM): 0.219
- relative viability (NCI-H1734; first compound 500 µM): 0.0834
- relative viability (NCI-H1993; first compound 5 µM): 0.492
- relative viability (NCI-H1993; first compound 15.81 µM): 0.532
- relative viability (NCI-H1993; first compound 50 µM): 0.492
- relative viability (NCI-H1993; first compound 158.11 µM): 0.473
- relative viability (NCI-H1993; first compound 500 µM): 0.42
- relative viability (NCI-H2009; first compound 5 µM): 0.478
- relative viability (NCI-H2009; first compound 15.81 µM): 0.443
- relative viability (NCI-H2009; first compound 50 µM): 0.42
- relative viability (NCI-H2009; first compound 158.11 µM): 0.0548
- relative viability (NCI-H2009; first compound 500 µM): 0.0187
- relative viability (NCI-H2085; first compound 5 µM): 0.814
- relative viability (NCI-H2085; first compound 15.81 µM): 0.62
- relative viability (NCI-H2085; first compound 50 µM): 0.701
- relative viability (NCI-H2085; first compound 158.11 µM): 0.295
- relative viability (NCI-H2085; first compound 500 µM): 0.0903
- relative viability (NCI-H2228; first compound 5 µM): 0.344
- relative viability (NCI-H2228; first compound 15.81 µM): 0.33
- relative viability (NCI-H2228; first compound 50 µM): 0.222
- relative viability (NCI-H2228; first compound 158.11 µM): 0.208
- relative viability (NCI-H2228; first compound 500 µM): 0.0339
- relative viability (NCI-H2347; first compound 5 µM): 0.441
- relative viability (NCI-H2347; first compound 15.81 µM): 0.352
- relative viability (NCI-H2347; first compound 50 µM): 0.461
- relative viability (NCI-H2347; first compound 158.11 µM): 0.471
- relative viability (NCI-H2347; first compound 500 µM): 0.378
- relative viability (NCI-H2405; first compound 5 µM): 0.394
- relative viability (NCI-H2405; first compound 15.81 µM): 0.367
- relative viability (NCI-H2405; first compound 50 µM): 0.392
- relative viability (NCI-H2405; first compound 158.11 µM): 0.396
- relative viability (NCI-H2405; first compound 500 µM): 0.371
- relative viability (NCI-H3122; first compound 5 µM): 0.387
- relative viability (NCI-H3122; first compound 15.81 µM): 0.364
- relative viability (NCI-H3122; first compound 50 µM): 0.339
- relative viability (NCI-H3122; first compound 158.11 µM): 0.17
- relative viability (NCI-H3122; first compound 500 µM): 0.0221
- relative viability (NCI-H596; first compound 5 µM): 0.64
- relative viability (NCI-H596; first compound 15.81 µM): 0.672
- relative viability (NCI-H596; first compound 50 µM): 0.812
- relative viability (NCI-H596; first compound 158.11 µM): 0.668
- relative viability (NCI-H596; first compound 500 µM): 0.0197
- relative viability (NCI-H838; first compound 5 µM): 0.586
- relative viability (NCI-H838; first compound 15.81 µM): 0.481
- relative viability (NCI-H838; first compound 50 µM): 0.558
- relative viability (NCI-H838; first compound 158.11 µM): 0.261
- relative viability (NCI-H838; first compound 500 µM): 0.0688
- relative viability (PC-14; first compound 5 µM): 0.463
- relative viability (PC-14; first compound 15.81 µM): 0.458
- relative viability (PC-14; first compound 50 µM): 0.567
- relative viability (PC-14; first compound 158.11 µM): 0.386
- relative viability (PC-14; first compound 500 µM): 0.207
- relative viability (RERF-LC-KJ; first compound 5 µM): 0.42
- relative viability (RERF-LC-KJ; first compound 15.81 µM): 0.409
- relative viability (RERF-LC-KJ; first compound 50 µM): 0.406
- relative viability (RERF-LC-KJ; first compound 158.11 µM): 0.134
- relative viability (RERF-LC-KJ; first compound 500 µM): 0.0945
- relative viability (SK-MES-1; first compound 5 µM): 0.642
- relative viability (SK-MES-1; first compound 15.81 µM): 0.623
- relative viability (SK-MES-1; first compound 50 µM): 0.599
- relative viability (SK-MES-1; first compound 158.11 µM): 0.147
- relative viability (SK-MES-1; first compound 500 µM): 0.0887
- relative viability (SW 1573; first compound 5 µM): 0.347
- relative viability (SW 1573; first compound 15.81 µM): 0.357
- relative viability (SW 1573; first compound 50 µM): 0.304
- relative viability (SW 1573; first compound 158.11 µM): 0.0746
- relative viability (SW 1573; first compound 500 µM): 0.0663
